System: MV-4-11 cells
Test: Gene expression microarray analysis (Affymetrix PrimeView) and GSEA
Format: cell-based, human
Design: RFU PODN (11730768_x_at) / Fold change /veh PODN (11730768_x_at) / RFU LINC00158 (11744669_a_at) / Fold change /veh LINC00158 (11744669_a_at) / RFU DUSP10 (11751237_a_at) / Fold change /veh DUSP10 (11751237_a_at) / RFU ID3 (11757404_x_at) / Fold change /veh ID3 (11757404_x_at) / RFU PLEKHG5 (11737974_s_at) / Fold change /veh PLEKHG5 (11737974_s_at) / RFU LRRC4B (11730491_at) / Fold change /veh LRRC4B (11730491_at) / RFU GIMAP4 (11747438_a_at) / Fold change /veh GIMAP4 (11747438_a_at) / RFU KRT8 (11758183_x_at) / Fold change /veh KRT8 (11758183_x_at) / RFU CNN1 (11734310_a_at) / Fold change /veh CNN1 (11734310_a_at) / RFU VPS37D (11726825_at) / Fold change /veh VPS37D (11726825_at) / RFU C10orf10 (11716522_x_at) / Fold change /veh C10orf10 (11716522_x_at) / RFU KIR2DL2 /// KIR2DL4 /// KIR2DL5A /// KIR2DL5B /// KIR2DS1 /// KIR2DS2 /// KIR2DS3 /// KIR2DS4 /// KIR3DL3 /// KIR3DL3 /// KIR3DS1 (11738374_at) / Fold change /veh KIR2DL2 /// KIR2DL4 /// KIR2DL5A /// KIR2DL5B /// KIR2DS1 /// KIR2DS2 /// KIR2DS3 /// KIR2DS4 /// KIR3DL3 /// KIR3DL3 /// KIR3DS1 (11738374_at) / RFU C1QL1 (11718748_at) / Fold change /veh C1QL1 (11718748_at) / RFU TMPRSS4 (11747572_a_at) / Fold change /veh TMPRSS4 (11747572_a_at) / RFU HAMP (11756126_x_at) / Fold change /veh HAMP (11756126_x_at) / RFU RNFT2 (11725882_a_at) / Fold change /veh RNFT2 (11725882_a_at) / RFU NR4A2 (11747474_a_at) / Fold change /veh NR4A2 (11747474_a_at) / RFU ABCC12 (11746883_a_at) / Fold change /veh ABCC12 (11746883_a_at) / RFU TMEM136 (11760407_x_at) / Fold change /veh TMEM136 (11760407_x_at) / RFU CLDN22 /// WWC2 (11732394_at) / Fold change /veh CLDN22 /// WWC2 (11732394_at) / RFU HLA-DPB1 (11760878_x_at) / Fold change /veh HLA-DPB1 (11760878_x_at) / RFU SPINT1 (11716480_a_at) / Fold change /veh SPINT1 (11716480_a_at) / RFU GAP43 (11754022_s_at) / Fold change /veh GAP43 (11754022_s_at) / RFU A4GNT (11735810_at) / Fold change /veh A4GNT (11735810_at) / RFU PRB3 (11715151_x_at) / Fold change /veh PRB3 (11715151_x_at) / RFU TUBB4B (11761932_at) / Fold change /veh TUBB4B (11761932_at) / RFU CAPN14 (11732068_a_at) / Fold change /veh CAPN14 (11732068_a_at) / RFU TMCC2 (11721928_a_at) / Fold change /veh TMCC2 (11721928_a_at) / RFU IRGQ (11745062_a_at) / Fold change /veh IRGQ (11745062_a_at) / RFU FAM174B (11720279_a_at) / Fold change /veh FAM174B (11720279_a_at) / RFU TMPRSS4 (11748680_a_at) / Fold change /veh TMPRSS4 (11748680_a_at) / RFU FAM212B (11763350_a_at) / Fold change /veh FAM212B (11763350_a_at) / RFU PLEKHG5 (11743358_a_at) / Fold change /veh PLEKHG5 (11743358_a_at) / RFU ZSCAN30 (11745921_a_at) / Fold change /veh ZSCAN30 (11745921_a_at) / RFU CMKLR1 (11741424_a_at) / Fold change /veh CMKLR1 (11741424_a_at) / RFU LOC101060620 /// MAPK8IP1 (11723275_at) / Fold change /veh LOC101060620 /// MAPK8IP1 (11723275_at) / RFU SPTSSB (11747773_x_at) / Fold change /veh SPTSSB (11747773_x_at) / RFU PRSS12 (11739890_at) / Fold change /veh PRSS12 (11739890_at) / RFU BIN1 (11741810_x_at) / Fold change /veh BIN1 (11741810_x_at) / RFU WNT11 (11732464_a_at) / Fold change /veh WNT11 (11732464_a_at) / RFU C10orf10 (11716521_a_at) / Fold change /veh C10orf10 (11716521_a_at) / RFU C5orf56 (11738089_at) / Fold change /veh C5orf56 (11738089_at) / RFU CYB561 (11721691_x_at) / Fold change /veh CYB561 (11721691_x_at) / RFU ANKRD19P (11752326_a_at) / Fold change /veh ANKRD19P (11752326_a_at) / RFU OR2T12 /// OR2T33 /// OR2T8 (11738714_s_at) / Fold change /veh OR2T12 /// OR2T33 /// OR2T8 (11738714_s_at) / RFU VCAN (11748164_a_at) / Fold change /veh VCAN (11748164_a_at) / RFU JSRP1 (11732532_at) / Fold change /veh JSRP1 (11732532_at) / RFU KRTAP10-11 (11738290_x_at) / Fold change /veh KRTAP10-11 (11738290_x_at) / RFU MYO3A (11730013_a_at) / Fold change /veh MYO3A (11730013_a_at) / RFU EBF3 (11725865_a_at) / Fold change /veh EBF3 (11725865_a_at) / RFU CAMK2N1 (11719241_x_at) / Fold change /veh CAMK2N1 (11719241_x_at) / RFU C5orf56 (11738088_a_at) / Fold change /veh C5orf56 (11738088_a_at) / RFU OLFML3 (11715873_a_at) / Fold change /veh OLFML3 (11715873_a_at) / RFU LOC100653217 /// NTM (11731650_a_at) / Fold change /veh LOC100653217 /// NTM (11731650_a_at) / RFU MAPK11 (11762145_a_at) / Fold change /veh MAPK11 (11762145_a_at) / RFU FIZ1 (11724087_x_at) / Fold change /veh FIZ1 (11724087_x_at) / RFU OASL (11726364_x_at) / Fold change /veh OASL (11726364_x_at) / RFU SOX15 (11748057_x_at) / Fold change /veh SOX15 (11748057_x_at) / RFU CD79A (11719716_a_at) / Fold change /veh CD79A (11719716_a_at) / RFU HIST1H1D (11736915_at) / Fold change /veh HIST1H1D (11736915_at) / RFU CASKIN2 (11723855_a_at) / Fold change /veh CASKIN2 (11723855_a_at) / RFU LOC730098 (11760151_x_at) / Fold change /veh LOC730098 (11760151_x_at) / RFU OR4N2 (11742367_at) / Fold change /veh OR4N2 (11742367_at) / RFU PRRT2 (11749266_a_at) / Fold change /veh PRRT2 (11749266_a_at) / RFU SNX32 (11753110_a_at) / Fold change /veh SNX32 (11753110_a_at) / RFU CDHR5 (11726645_a_at) / Fold change /veh CDHR5 (11726645_a_at) / RFU RCAN1 (11760418_a_at) / Fold change /veh RCAN1 (11760418_a_at) / RFU FAM167A (11723789_a_at) / Fold change /veh FAM167A (11723789_a_at) / RFU FAM26E (11764081_at) / Fold change /veh FAM26E (11764081_at) / RFU ISYNA1 (11749810_s_at) / Fold change /veh ISYNA1 (11749810_s_at) / RFU ACY1 (11761880_at) / Fold change /veh ACY1 (11761880_at) / RFU 11764098_at / Fold change /veh 11764098_at / RFU SAMD14 (11745864_x_at) / Fold change /veh SAMD14 (11745864_x_at) / RFU NPB (11741838_a_at) / Fold change /veh NPB (11741838_a_at) / RFU TMPRSS6 (11731388_a_at) / Fold change /veh TMPRSS6 (11731388_a_at) / RFU KRTAP10-2 (11738614_at) / Fold change /veh KRTAP10-2 (11738614_at) / RFU ARHGAP8 /// PRR5-ARHGAP8 (11727945_x_at) / Fold change /veh ARHGAP8 /// PRR5-ARHGAP8 (11727945_x_at) / RFU KRTAP5-7 /// NADSYN1 (11734609_at) / Fold change /veh KRTAP5-7 /// NADSYN1 (11734609_at) / RFU RASL12 (11751679_a_at) / Fold change /veh RASL12 (11751679_a_at) / RFU CDKN2B (11736163_a_at) / Fold change /veh CDKN2B (11736163_a_at) / RFU PRF1 (11729649_at) / Fold change /veh PRF1 (11729649_at) / RFU, ZNF638 /// ZNF638-IT1 / Fold change vs veh, ZNF638 /// ZNF638-IT1 / RFU, PANK3 / Fold change vs veh, PANK3 / RFU, SH3YL1 / Fold change vs veh, SH3YL1 / RFU, ZEB2 / Fold change vs veh, ZEB2 / RFU, NRIP1 / Fold change vs veh, NRIP1 / RFU, PTTG1IP / Fold change vs veh, PTTG1IP / RFU, CAPN2 / Fold change vs veh, CAPN2 / RFU, MED14 / Fold change vs veh, MED14 / RFU, SNORA58 / Fold change vs veh, SNORA58 / RFU, C1orf63 / Fold change vs veh, C1orf63 / RFU, LRRFIP1 / Fold change vs veh, LRRFIP1 / RFU, NDUFAF7 / Fold change vs veh, NDUFAF7 / RFU, SLC12A2 / Fold change vs veh, SLC12A2 / RFU, IBTK / Fold change vs veh, IBTK / RFU, ESF1 / Fold change vs veh, ESF1 / Fold change vs veh, TMEM50B / RFU, TAOK1 / Fold change vs veh, TAOK1 / RFU, ACBD3 / Fold change vs veh, ACBD3 / RFU, TMA16 / Fold change vs veh, TMA16 / RFU, RWDD3 / Fold change vs veh, RWDD3 / RFU, BCAT1 / Fold change vs veh, BCAT1 / RFU, EDEM3 / Fold change vs veh, EDEM3 / RFU, TMEM33 / Fold change vs veh, TMEM33 / RFU, WDR75 / Fold change vs veh, WDR75 / RFU, AHCTF1 / Fold change vs veh, AHCTF1 / RFU, TFRC / Fold change vs veh, TFRC / RFU, ZDHHC17 / Fold change vs veh, ZDHHC17 / RFU, NOM1 / Fold change vs veh, NOM1 / RFU, ARL8B / Fold change vs veh, ARL8B / RFU, ZBTB11 / Fold change vs veh, ZBTB11 / RFU, TAMM41 / Fold change vs veh, TAMM41 / RFU, KIAA1704 /// LOC100996395 / Fold change vs veh, KIAA1704 /// LOC100996395 / RFU, ING1 / Fold change vs veh, ING1 / RFU, TRMT61B / Fold change vs veh, TRMT61B / RFU, FUBP3 / Fold change vs veh, FUBP3 / RFU, TP53 / Fold change vs veh, TP53 / RFU, TNKS2 / Fold change vs veh, TNKS2 / RFU, ZFP14 / Fold change vs veh, ZFP14 / RFU, ACTR2 / Fold change vs veh, ACTR2 / RFU, PPP3R1 / Fold change vs veh, PPP3R1 / RFU, PIK3R1 / Fold change vs veh, PIK3R1 / RFU, HNRNPA1 / Fold change vs veh, HNRNPA1 / RFU, RNF170 / Fold change vs veh, RNF170 / RFU, ZNF28 / Fold change vs veh, ZNF28 / RFU, RNGTT / Fold change vs veh, RNGTT / RFU, OGT / Fold change vs veh, OGT / RFU, BRD1 / Fold change vs veh, BRD1 / RFU, MARS / Fold change vs veh, MARS / RFU, ZNF655 / Fold change vs veh, ZNF655 / RFU, FAHD1 / Fold change vs veh, FAHD1 / RFU, BDP1 / Fold change vs veh, BDP1 / RFU, LRRCC1 / Fold change vs veh, LRRCC1 / RFU, ARID1A / Fold change vs veh, ARID1A / RFU, ZNF146 / Fold change vs veh, ZNF146 / RFU, ZNF330 / Fold change vs veh, ZNF330 / RFU, GPN3 / Fold change vs veh, GPN3 / RFU, C9orf123 / Fold change vs veh, C9orf123 / RFU, N4BP2L2 / Fold change vs veh, N4BP2L2 / RFU, ARFIP1 / Fold change vs veh, ARFIP1 / RFU, FAM179B / Fold change vs veh, FAM179B / RFU, BCL10 / Fold change vs veh, BCL10 / RFU, UHRF1BP1L / Fold change vs veh, UHRF1BP1L / RFU, BET1 / Fold change vs veh, BET1 / RFU, CNOT2 / Fold change vs veh, CNOT2 / RFU, ZNF268 / Fold change vs veh, ZNF268 / Fold change vs veh, ZNF507 / RFU, DGCR2 / Fold change vs veh, DGCR2 / RFU, WDSUB1 / Fold change vs veh, WDSUB1 / Fold change vs veh, HSP90B1 /// MIR3652 / RFU, ADSS / Fold change vs veh, ADSS / RFU, GK / Fold change vs veh, GK / RFU, ZNF148 / Fold change vs veh, ZNF148 / RFU, TAF9 / Fold change vs veh, TAF9 / RFU, SLC1A5 / Fold change vs veh, SLC1A5 / RFU, SLMO2 / Fold change vs veh, SLMO2 / RFU, ABCC4 / Fold change vs veh, ABCC4 / RFU, LOC101060439 /// RAP1B / Fold change vs veh, LOC101060439 /// RAP1B / RFU, RFX7 / Fold change vs veh, RFX7 / RFU, GTPBP10 / Fold change vs veh, GTPBP10 / RFU, CNEP1R1 / Fold change vs veh, CNEP1R1 / RFU, BIVM-ERCC5 /// ERCC5 / Fold change vs veh, BIVM-ERCC5 /// ERCC5 / RFU, ILF3 / Fold change vs veh, ILF3 / RFU 11762660_at / Fold change /veh 11762660_at / RFU VCAN (11757783_s_at) / Fold change /veh VCAN (11757783_s_at) / RFU DDX43 (11728927_at) / Fold change /veh DDX43 (11728927_at) / RFU KRT8 (11758188_x_at) / Fold change /veh KRT8 (11758188_x_at) / RFU NKD1 (11759106_at) / Fold change /veh NKD1 (11759106_at) / RFU SRD5A1 (11742802_a_at) / Fold change /veh SRD5A1 (11742802_a_at) / RFU TPSAB1 /// TPSB2 (11721975_s_at) / Fold change /veh TPSAB1 /// TPSB2 (11721975_s_at) / RFU GSTM3 (11746129_a_at) / Fold change /veh GSTM3 (11746129_a_at) / RFU IL23R (11737362_x_at) / Fold change /veh IL23R (11737362_x_at) / RFU TMEM51 (11727254_a_at) / Fold change /veh TMEM51 (11727254_a_at) / RFU PIWIL2 (11732686_x_at) / Fold change /veh PIWIL2 (11732686_x_at) / RFU ORM1 (11744905_x_at) / Fold change /veh ORM1 (11744905_x_at) / RFU CCDC152 (11743942_at) / Fold change /veh CCDC152 (11743942_at) / RFU ECM1 (11717891_a_at) / Fold change /veh ECM1 (11717891_a_at) / RFU IL23R (11748794_a_at) / Fold change /veh IL23R (11748794_a_at) / RFU TNFAIP8L3 (11732012_x_at) / Fold change /veh TNFAIP8L3 (11732012_x_at) / RFU MBOAT4 (11741988_at) / Fold change /veh MBOAT4 (11741988_at) / RFU 11764193_at / Fold change /veh 11764193_at / RFU TMEM53 (11763286_at) / Fold change /veh TMEM53 (11763286_at) / RFU MAGEB2 (11727129_at) / Fold change /veh MAGEB2 (11727129_at) / RFU TMEM200A (11744735_a_at) / Fold change /veh TMEM200A (11744735_a_at) / RFU CCDC152 (11751479_a_at) / Fold change /veh CCDC152 (11751479_a_at) / RFU FAM211A (11726209_a_at) / Fold change /veh FAM211A (11726209_a_at) / RFU RGS16 (11746705_a_at) / Fold change /veh RGS16 (11746705_a_at) / RFU VCAN (11755009_s_at) / Fold change /veh VCAN (11755009_s_at) / RFU RHOB (11743442_s_at) / Fold change /veh RHOB (11743442_s_at) / RFU RGS16 (11720943_a_at) / Fold change /veh RGS16 (11720943_a_at) / RFU RGS16 (11720944_at) / Fold change /veh RGS16 (11720944_at) / RFU, VPS4B / Fold change vs veh, VPS4B / RFU, CREB1 / Fold change vs veh, CREB1 / RFU, DNAJC13 / Fold change vs veh, DNAJC13 / RFU, GNAQ / Fold change vs veh, GNAQ / RFU, CDK5R1 / Fold change vs veh, CDK5R1 / RFU, ZRANB3 / Fold change vs veh, ZRANB3 / RFU, CUL4A / Fold change vs veh, CUL4A / RFU, CCNY / Fold change vs veh, CCNY / RFU, UFL1 / Fold change vs veh, UFL1 / RFU, COG3 / Fold change vs veh, COG3 / RFU, DIAPH2 / Fold change vs veh, DIAPH2 / RFU, SKA2 / Fold change vs veh, SKA2 / RFU, AFF3 / Fold change vs veh, AFF3 / RFU, LMF1 / Fold change vs veh, LMF1 / RFU, IPO11 / Fold change vs veh, IPO11 / RFU, DFFB / Fold change vs veh, DFFB / RFU, FOXP1 / Fold change vs veh, FOXP1 / RFU, CARD8 / Fold change vs veh, CARD8 / RFU, STRN3 / Fold change vs veh, STRN3 / RFU, ADK / Fold change vs veh, ADK / RFU, RASSF2 / Fold change vs veh, RASSF2 / RFU, WIPF1 / Fold change vs veh, WIPF1 / RFU, LARP1B / Fold change vs veh, LARP1B / RFU, RASA1 / Fold change vs veh, RASA1 / RFU, RB1 / Fold change vs veh, RB1 / RFU, PPFIA1 / Fold change vs veh, PPFIA1 / RFU, MAT2A / Fold change vs veh, MAT2A / RFU, CCT5 / Fold change vs veh, CCT5 / RFU, WDR92 / Fold change vs veh, WDR92 / RFU, CUX1 / Fold change vs veh, CUX1 / RFU, TTC7A / Fold change vs veh, TTC7A / RFU, TMEM135 / Fold change vs veh, TMEM135 / RFU, DEPTOR / Fold change vs veh, DEPTOR / RFU, CPM / Fold change vs veh, CPM / RFU, DNAJB6 / Fold change vs veh, DNAJB6 / RFU, CACNA2D3 / Fold change vs veh, CACNA2D3 / RFU, DTX4 / Fold change vs veh, DTX4 / RFU, TFCP2 / Fold change vs veh, TFCP2 / RFU, GMCL1 /// GMCL1P1 / Fold change vs veh, GMCL1 /// GMCL1P1 / RFU, AEBP2 / Fold change vs veh, AEBP2 / RFU, SNHG1 /// SNORD22 /// SNORD25 /// SNORD26 /// SNORD27 /// SNORD28 /// SNORD29 /// SNORD31 / Fold change vs veh, SNHG1 /// SNORD22 /// SNORD25 /// SNORD26 /// SNORD27 /// SNORD28 /// SNORD29 /// SNORD31 / Fold change (Aza/veh), C12orf56 (ProbeSet 11735607_a_at) / Fold change (ACY-1035/veh), C12orf56 (ProbeSet 11735607_a_at) / Fold change (Aza/veh), FGFR1OP (ProbeSet 11751329_s_at) / Fold change (ACY-1035/veh), FGFR1OP (ProbeSet 11751329_s_at) / Fold change (Aza/veh), VPS36 (ProbeSet 11739960_a_at) / Fold change (ACY-1035/veh), VPS36 (ProbeSet 11739960_a_at) / RFU SYPL1 (11715823_x_at) / Fold change /veh SYPL1 (11715823_x_at) / RFU IGFBP7 (11715501_s_at) / Fold change /veh IGFBP7 (11715501_s_at) / RFU REEP3 (11722064_at) / Fold change /veh REEP3 (11722064_at) / RFU IGLL1 (11728026_x_at) / Fold change /veh IGLL1 (11728026_x_at): dose or concentration left out as unconfirmed
Details: MV-4-11 cells, 48 hours

Nc1ncn([C@@H]2O[C@H](CO)[C@@H](O)[C@H]2O)c(=O)n1 [azacitidine]
Fold change /veh KRTAP5-7 /// NADSYN1 (11734609_at): 1.00

From PMC5218480 (PLoS ONE, 2017)
